{
  "source": "patent US20170071901A1",
  "about": "“METHODS AND FORMULATIONS FOR INCREASING CHEMICAL STABILITY AND BIOLOGICAL ACTIVITY OF PHENOLIC COMPOUNDS” (priority 2015, published 2017)",
  "key": {"MC38 colon cancer cells [1]": {"tested_on": "MC38 colon cancer cells", "experiment": "MC38 colon cancer cell proliferation (MTT assay)", "type": "cell-based", "conditions": "for effect of antioxidant on anti-proliferative effect of curcumin: MC38, curcumin 20 μM with antioxidant (3.9 μM each, FIG. 4D); for effect of antioxidant on anti-proliferative effect of curcumin / effect of antioxidant alone on MC38 cell proliferation: 24 h; for inhibition at 10 µg/mL: Mus musculus; for effect of antioxidant alone on MC38 cell proliferation: 3.9-62.5 μM antioxidant alone", "method": "MC38 colon cancer cells (a gift from Prof. Ajit Varki at the University of California, San Diego) were plated into 96-well plates (6,000 cells per well) in 100 μL Dulbecco's Modified Eagle Medium (DMEM, purchased from Lonza, Allendale, N.J.) fortified with 10% Fetal Bovine Serum ([…], purchased from Coming Inc., Corning, N.Y.) and allowed to attach overnight. […] Nitteranon, V.; Chan, L. Y.; Parkin, K. L. Glutathione conjugation attenuates biological activities of 6-dehydroshogaol from ginger. Food Chem. 140:1-8; 2013, which is incorporated by reference herein in its entirety and for all purposes."}, "[2]": {"experiment": "Plasma concentration of curcumin in mice after i.p. injection (HPLC)", "type": "in vivo", "conditions": "male, Swiss Webster, mouse, intraperitoneal, 20 mg/kg", "method": "After 1 h, the mice were sacrificed to harvest the blood. The harvested blood was centrifuged at 1,200 g for 10 min at 4° C. to prepare the plasma fraction; then 200 μL plasma was immediately extracted with 400 μL ethyl acetate, the ethyl acetate extract was dried and reconstituted in methanol for HPLC analysis.\nThe mobile phase consisted methanol with 0.1% acetic acid (mobile phase B) and water with 0.1% acetic acid (mobile phase A)."}, "[3]": {"tested_on": "advanced pancreatic cancer", "conditions": "human, daily intake of 8 grams; cited from earlier work"}, "[4]": {"tested_on": "Cadmium-induced hepatotoxicity", "conditions": "rats; 200-400 mg/kg curcumin alone, 400 mg/kg ascorbate alone, or their combination; cited from earlier work"}, "physchem": {"experiment": "physchem", "conditions": "0.1 M phosphate buffer, pH 7.4"}, "NF-kB signaling": {"tested_on": "NF-kB signaling", "experiment": "LPS-induced NF-kB signaling in RAW 264.7 macrophage cells", "type": "cell-based"}, "MC38 colon cancer cells [5]": {"tested_on": "MC38 colon cancer cells", "experiment": "Cell cycle progression and apoptosis in MC38 colon cancer cells", "type": "cell-based", "conditions": "MC38, 24 hour treatment"}, "[6]": {"conditions": "for stability of the compound in phosphate buffer (HPLC): 25 μM of each compound, 0.1 M phosphate buffer pH 7.4"}, "[7]": {"tested_on": "LPS-induced NO production", "experiment": "LPS-induced NO production in RAW 264.7 macrophage cells", "type": "cell-based"}, "colorectal cancer": {"tested_on": "colorectal cancer", "conditions": "human, cited from earlier work"}, "COX-2": {"tested_on": "COX-2", "conditions": "RAW 264.7 macrophage cells"}, "[8]": {"experiment": "Curcumin stability in serum-free basal DMEM medium (HPLC)", "type": "physicochemical", "description": "(A1-A6) Representative microscope images of the treated cells. […] The results are mean ±SD, The samples designated with different letters are statistically different (P <0.05)."}, "[9]": {"conditions": "aqueous buffer, background statement; cited from earlier work"}, "iNOS": {"tested_on": "iNOS", "experiment": "LPS-induced expression of iNOS in RAW 264.7 macrophage cells", "type": "cell-based"}, "[10]": {"conditions": "25 μM curcumin, 0.1 M phosphate buffer, with or without 150 μM antioxidant, HPLC, % of time 0"}},
  "note": "“Also recorded” adds a separate entry of the source. Like-named read-outs stand apart in the source and are kept apart here.",
  "data": [
    {"compound": "O=C(/C=C/c1ccc(O)c(O)c1)O[C@H](Cc1ccc(O)c(O)c1)C(=O)O", "note": "[rosmarinic acid]", "values": [
      {"measurement": "effect of antioxidant on anti-proliferative effect of curcumin", "setting": "MC38 colon cancer cells [1]", "value": "significantly increased anti-proliferative effects of curcumin"}
    ]},
    {"compound": "COc1cc(/C=C/C(=O)CC(=O)/C=C/c2ccc(O)c(OC)c2)ccc1O", "note": "[curcumin]", "values": [
      {"measurement": "concentration at 1 h", "setting": "[2]", "value": "14.8 ± 16", "unit": "nM"},
      {"measurement": "anti-cancer efficacy in advanced pancreatic cancer", "setting": "[3]", "value": "demonstrates anti-cancer efficacy in some patients"},
      {"measurement": "effect on Cadmium-induced hepatotoxicity", "setting": "[4]", "value": "no effect"},
      {"measurement": "half-life at 25 μM", "setting": "physchem", "value": "< 10", "unit": "min"},
      {"measurement": "inhibition of LPS-induced NF-kB signaling (IKK phosphorylation, IκBα degradation, nuclear translocation of p65)", "setting": "NF-kB signaling", "value": "inhibited LPS-induced activation of NF-kB signaling"},
      {"measurement": "G2 cell cycle arrest and apoptosis", "setting": "MC38 colon cancer cells [5]", "value": "significantly induced G2 cell cycle arrest and apoptosis"},
      {"measurement": "degradation of curcumin in the buffer (HPLC)", "setting": "[6]; 25 μM curcumin, 0.1 M phosphate buffer pH 7.4, after ~12-min incubation", "value": "80-90%"},
      {"measurement": "curcumin remaining in the phosphate buffer after 24-h incubation", "setting": "[6]; [10]", "value": "~5.9", "unit": "%"},
      {"measurement": "curcumin remaining in the phosphate buffer after 48-h incubation", "setting": "[6]; [10]", "value": "~4.2", "unit": "%"},
      {"measurement": "stability of the compound in phosphate buffer (HPLC)", "setting": "[6]", "value": "rapidly degraded"},
      {"measurement": "inhibition of LPS-induced NO production", "setting": "[7]", "value": "inhibited LPS-induced NO production in a dose-dependent manner"},
      {"measurement": "effect in Phase IIa trial of colorectal cancer at 2 grams/day", "setting": "colorectal cancer; 2 grams/day", "value": "no effect"},
      {"measurement": "effect in Phase IIa trial of colorectal cancer at 4 grams/day", "setting": "colorectal cancer; 4 grams/day", "value": "only inhibited aberrant crypt foci; also recorded: only reduced colorectal cancer risks"},
      {"measurement": "reduction of aberrant crypt foci", "setting": "colorectal cancer; daily intake of 4 grams of curcumin for a month", "value": "~40", "unit": "%"},
      {"measurement": "inhibition of LPS-induced expression of inflammatory protein COX-2", "setting": "COX-2", "value": "inhibited"},
      {"measurement": "stability of curcumin in basal medium", "setting": "[8]", "value": "rapidly degraded"},
      {"measurement": "half-life of curcumin at physiological pH", "setting": "[9]", "value": "several minutes"},
      {"measurement": "inhibition at 10 µg/mL", "setting": "MC38 colon cancer cells [1]; MC-38, 24 h, read-out: inhibition of MC38 proliferation after 24 h treatment", "value": "~60", "unit": "%"},
      {"measurement": "inhibition at 10 µg/mL", "setting": "MC38 colon cancer cells [1]; MC-38, read-out: inhibition of MC38 proliferation after 48-72 h treatment", "value": "> 95", "unit": "%"},
      {"measurement": "inhibition of LPS-induced expression of iNOS", "setting": "iNOS", "value": "dose-dependently inhibited"}
    ]},
    {"compound": "O=C(O)/C=C/c1ccc(O)c(O)c1", "note": "[caffeic acid]", "values": [
      {"measurement": "effect of antioxidant on anti-proliferative effect of curcumin", "setting": "MC38 colon cancer cells [1]", "value": "significantly increased anti-proliferative effects of curcumin"}
    ]},
    {"compound": "bicyclopentadione [BCP]", "values": [
      {"measurement": "inhibition of LPS-induced NF-kB signaling (IKK phosphorylation, IκBα degradation, nuclear translocation of p65)", "setting": "NF-kB signaling", "value": "neither TDP nor BCP had such inhibitory effect"},
      {"measurement": "G2 cell cycle arrest and apoptosis", "setting": "MC38 colon cancer cells [5]", "value": "neither TDP nor BCP had such effects"},
      {"measurement": "inhibition of LPS-induced NO production", "setting": "[7]", "value": "no effect"},
      {"measurement": "inhibition of cancer cell proliferation in the tested dose range", "setting": "MC38 colon cancer cells [1]; MC38, 10-40 μg/mL, 24-72 h treatment", "value": "completely inactive"},
      {"measurement": "inhibition of LPS-induced expression of iNOS", "setting": "iNOS", "value": "no effect"}
    ]},
    {"compound": "O=C([O-])CN(CCN(CC(=O)O)CC(=O)O)CC(=O)[O-].[Na+].[Na+]", "note": "[EDTA, disodiumethylenediaminetetra acetic acid]", "values": [
      {"measurement": "protective effect of EDTA on curcumin stability (HPLC)", "setting": "[6]; EDTA even at a dose as high as 200 μM, phosphate buffer", "value": "little protective effect"}
    ]},
    {"compound": "O=C(O)c1cc(O)c(O)c(O)c1", "note": "[gallic acid]", "values": [
      {"measurement": "effect of co-added antioxidant on curcumin stability (colorimetric assay, absorbance 420 nm)", "setting": "[6]; 25 μM curcumin, phosphate buffer, dose of antioxidants 15 and 1.50 μM as printed", "value": "dramatically increased curcumin stability"},
      {"measurement": "effect of co-added antioxidant on long-term stability of curcumin", "setting": "[6]; 24-h and 48-h incubation, antioxidant 150 μM, 25 μM curcumin, phosphate buffer, HPLC", "value": "significantly increased long-term stability of curcumin"},
      {"measurement": "effect of antioxidant on anti-proliferative effect of curcumin", "setting": "MC38 colon cancer cells [1]", "value": "significantly increased anti-proliferative effects of curcumin"}
    ]},
    {"compound": "COc1ccc(C=CC(=O)CC(=O)C=Cc2ccc(OC)c(OC)c2)cc1OC", "note": "[dimethoxy curcumin, 1,7-bis(3,4-dimethoxyphenyl)-1,6-heptadiene-3,5-dione]", "values": [
      {"measurement": "stability of the compound in phosphate buffer (HPLC)", "setting": "[6]", "value": "very stable"}
    ]},
    {"compound": "CC(C)(C)c1cc(O)ccc1O", "note": "[TBHQ, tert-butylhydroquinone]", "values": [
      {"measurement": "effect of antioxidant on anti-proliferative effect of curcumin", "setting": "MC38 colon cancer cells [1]", "value": "significantly increased anti-proliferative effects of curcumin"}
    ]},
    {"compound": "O=C1O[C@H]([C@@H](O)CO)C(O)=C1O", "note": "[ascorbate]", "values": [
      {"measurement": "effect of antioxidant alone on MC38 cell proliferation", "setting": "MC38 colon cancer cells [1]", "value": "no effect"}
    ]},
    {"compound": "Cc1c(C)c2c(c(C)c1O)CCC(C)(C(=O)O)O2", "note": "(stereo not drawn) [Trolox]", "values": [
      {"measurement": "effect of antioxidant alone on MC38 cell proliferation", "setting": "MC38 colon cancer cells [1]", "value": "no effect"},
      {"measurement": "effect of antioxidant on anti-proliferative effect of curcumin", "setting": "MC38 colon cancer cells [1]", "value": "significantly increased anti-proliferative effects of curcumin"}
    ]}
  ]
}
